Several values for one entry are separate records, joined by “and”; a condition that tells them apart may be missing. Equal values may be shown once. Read-outs that look alike come from different tables or passages of the source.
What was measured:
[1] = system: SKOV3 (human ovarian carcinoma) cell line; experiment: Cytotoxicity against SKOV3 cell line; details: Table 2
[2] = system: LoVo (human colon-carcinoma) cell line; experiment: Cytotoxicity against LoVo cell line; type: cell-based
[3] = system: murine leukemia (L1210 or P388), murine solid tumor, human solid tumor and low malignancy fibroblast (LML) cells; details: for Differential in Zone Units, Corbett Assay: μg/disk as for E3; for Type of Cytotoxicity, Corbett Assay: μg/disk: 1 12.5, 2 25, 3 25, 4 20, 5 2.9, 6 250, 8 30, 5-FU 2.5, VP-16 5, taxol 0.2, ^c selective against drug-sensitive and drug-resistant cell lines, ^d drug-sensitive cell lines only
[4] = system: KB (human nasopharyngeal carcinoma) cell line; experiment: Cytotoxicity against KB cell line; type: cell-based
[5] = system: Panc 03 (pancreatic ductal adenocarcinoma #03, P03); details: SC P03
Protocol: (§1) Gross log kill is defined as T-C/3.2 Td where T is the median time in days for the tumors of the treated group to reach 750 mg, C is the median time in days for the tumors of the control group to reach 750 mg, and Td is the tumor volume doubling time.

Mam 16/C (mammary #16/C) = experiment: In vivo activity, SC Mam 16/C tumor; details: Exp # 1885, 7 inj. IV, 21.3 mg/kg TD
Protocol: as §1

[6] = system: Colon 38 (colon adenocarcinoma #38); details: SC C38
Protocol: as §1

[7] = system: murine and human tumors implanted in mice
Protocol: as §1

[8] = system: Colon 51 (colon adenocarcinoma #51); experiment: In vivo activity, SC Colon 51 tumor; details: Exp # 1900, 9 inj. IV, 67.5 mg/kg TD
Protocol: as §1

[9] = system: A-10 rat aortic smooth muscle cells; type: cell-based; details: A-10 cells
Protocol: A-10 cells were grown to near-confluency on glass coverslips in BME/10% FBS. Compounds in PBS were added to the indicated final concentrations and cells were incubated for an additional 24 hours. For the staining of microtubules and intermediate filaments, the cells were fixed with cold methanol and incubated with PBS containing 10% calf serum to block nonspecific binding sites. Cells were then incubated at 37° C. for 60 min with either monoclonal anti-p-tubulin or with monoclonal anti-vimentin at dilutions recommended by the manufacturer. Bound primary antibodies were subsequently visualized by a 45-minute incubation with fluorescein-conjugated rabbit antimouse IgG. The coverslips were mounted on microscope slides and the fluorescence patterns were examined and photographed using a Zeiss Photomicroscope Ill equipped with epifluorescence optics for fluorescein. […] PBS containing 100 nM TRITC-phalloidin was then added and the mixture was allowed to incubate for 45 min at 37° C. The cells were washed rapidly three times with PBS before the coverslips were mounted and immediately photographed as described above.
After 24 hours, microtubules and vimentin intermediate filaments were visualized by indirect immunofluorescence and microfilaments were stained using TRITC-phalloidin. The morphological effects of each drug were examined.
After 24 hours, microtubule organization was examined by immunofluorescence as described above.
The cells were then washed and incubated in drug-free medium for periods of 1 hour or 24 hours.

[10] = system: SKOV3 cells (human ovarian carcinoma); experiment: Cell proliferation assay (SRB staining), SKOV3 cells; type: cell-based; details: SKOV3 cells treated 24 hours with IC50 doses, then drug-free medium
[11] = Exp # 1843, 4 inj. IV, 28/5 mg/kg TD
[12] = Exp # 1769, 15 inj. IV, 45 mg/kg TD
[13] = Exp # 1887B, 6 inj. IV, 30 mg/kg TD
[14] = Exp # 1825, 11 inj. IV, 106 mg/kg TD
[15] = Exp # 1878, 9 inj. IV, 82 mg/kg TD
[16] = Exp # 1813, 9 inj. IV, 27 mg/kg TD
[17] = Exp # 1843, 7 inj. IV, 23 mg/kg TD
[18] = 24 hours, 2 μM cytochalasin B, 100 nM vinblastine or 10 nM cryptophycin compounds

COc1ccc(C[C@H]2NC(=O)/C=C/C[C@@H]([C@H](C)[C@H]3O[C@@H]3c3ccccc3)OC(=O)[C@H](CC(C)C)OC(=O)[C@H](C)CNC2=O)cc1 [Cryptophycin 2]
SKOV3 IC50 [1]: 0.18 ng/mL
LoVo IC50 ([2]; Table 1): 0.0002 ng/mL
LoVo IC50 ([2]; Table 2): 0.021 ng/mL
Differential in Zone Units, Corbett Assay [3]: > 400 Zone Units
Type of Cytotoxicity, Corbett Assay [3]: E/T

COc1ccc(C[C@H]2NC(=O)/C=C/C[C@@H]([C@H](C)/C=C/c3ccccc3)OC(=O)[C@H](CC(C)C)OC(=O)[C@H](C)CNC2=O)cc1Cl [Cryptophycin 3]
KB IC50 ([4]; Table 1): 0.3 ng/mL
SKOV3 IC50 [1]: 2.8 ng/mL
% Body Wt. Loss at Nadir [5, 11]: -9%
Cures [5, 11]: 0/5
Log Kill [5, 11]: < 1
T/C [5, 11]: 54%
LoVo IC50 ([2]; Table 1): 0.5 ng/mL
LoVo IC50 ([2]; Table 2): 0.6 ng/mL
Differential in Zone Units, Corbett Assay [3]: > 400 Zone Units
Type of Cytotoxicity, Corbett Assay [3]: E/T

COc1ccc(C[C@H]2NC(=O)/C=C/C[C@@H]([C@H](C)/C=C/c3ccccc3)OC(=O)[C@H](CC(C)C)OC(=O)[C@H](C)CNC2=O)cc1 [Cryptophycin 4]
SKOV3 IC50 [1]: 21 ng/mL
LoVo IC50 ([2]; Table 2): 2.5 ng/mL
Differential in Zone Units, Corbett Assay [3]: > 400 Zone Units
Type of Cytotoxicity, Corbett Assay [3]: E/T

COc1ccc(C[C@H]2NC(=O)/C=C/C[C@@H]([C@H](C)[C@@H](O)[C@@H](Cl)c3ccccc3)OC(=O)[C@H](CC(C)C)OC(=O)[C@H](C)CNC2=O)cc1Cl [Cryptophycin 8]
% Body Wt. Loss at Nadir (Mam 16/C (mammary #16/C)): -4.5%
Cures (Mam 16/C (mammary #16/C)): 0/5
Log Kill (Mam 16/C (mammary #16/C)): 2.5
T/C (Mam 16/C (mammary #16/C)): 6%
KB IC50 ([4]; Table 1): 0.0002 ng/mL
KB IC50 ([4]; Table 2): 0.01 ng/mL
SKOV3 IC50 [1]: 0.15 ng/mL
% Body Wt. Loss at Nadir [6, 12]: -2%
Cures [6, 12]: 0/5
Cures [6, 13]: 1/5
Log Kill [6, 13]: 2.8
T/C [6, 13]: 0%
% Body Wt. Loss at Nadir [5, 14]: -6%
Cures [5, 14]: 0/5
Log Kill [5, 14]: 4.6
T/C [5, 14]: 4%
tumor burden T/C ([7]; all of the tumors tested to date): < 10%
lethal toxicity observed during testing ([7]; in vivo testing): attributed to leucopenia
gross log kill activity ratings ([7]; tumors implanted in mice): +++ to ++++
LoVo IC50 ([2]; Table 1): 0.01 ng/mL
LoVo IC50 ([2]; Table 2): 0.0022 ng/mL
% Body Wt. Loss at Nadir [8]: -1%
Log Kill [8]: 1.8
T/C [8]: 7%
Differential in Zone Units, Corbett Assay [3]: > 500 Zone Units
Type of Cytotoxicity, Corbett Assay [3]: E/T

CC(C)C[C@@H]1OC(=O)[C@H](C)CNC(=O)[C@@H](Cc2ccc(O)c(Cl)c2)NC(=O)/C=C/C[C@@H]([C@H](C)[C@H]2O[C@@H]2c2ccccc2)OC1=O [Cryptophycin 16]
KB IC50 ([4]; Table 2): 0.08 ng/mL
SKOV3 IC50 [1]: 0.64 ng/mL
% Body Wt. Loss at Nadir [5, 15]: -1%
Cures [5, 15]: 0/5
Log Kill [5, 15]: None
T/C [5, 15]: 89%

COc1ccc(C[C@H]2NC(=O)/C=C/C[C@@H]([C@H](C)[C@H]3O[C@@H]3c3ccccc3)OC(=O)[C@H](CC(C)C)OC(=O)CCNC2=O)cc1Cl [Cryptophycin 21]
SKOV3 IC50 [1]: 0.029 ng/mL
% Body Wt. Loss at Nadir [5, 16]: -11%
Cures [5, 16]: 0/5
Log Kill [5, 16]: None
T/C [5, 16]: 61%
dead [5, 16]: 1/5
LoVo IC50 ([2]; Table 2): 0.0003 ng/mL

COc1c(Cl)cc(CC2NC(=O)C=CCC(C(C)C3OC3c3ccccc3)OC(=O)C(CC(C)C)OC(=O)C(C)CNC2=O)cc1Cl (stereo not shown) [Cryptophycin 31]
KB IC50 ([4]; Table 2): 0.53 ng/mL
SKOV3 IC50 [1]: 1.9 ng/mL
LoVo IC50 ([2]; Table 2): 0.062 ng/mL

COc1ccc(CC2NC(=O)CCCC(C(C)C3OC3c3ccccc3)OC(=O)C(CC(C)C)OC(=O)C(C)CNC2=O)cc1Cl (stereo not shown) [Cryptophycin 35]
KB IC50 ([4]; Table 2): 0.055 ng/mL
SKOV3 IC50 [1]: 0.092 ng/mL
% Body Wt. Loss at Nadir [5, 17]: -2%
Cures [5, 17]: 0/5
Log Kill [5, 17]: 1.3
T/C [5, 17]: 11%
in vivo activity ([7]; the one trial that has been run to date): Good in vivo activity

CC[C@H](C)[C@@H]1OC(=O)[C@H](C)CNC(=O)[C@@H](Cc2ccc(OC)c(Cl)c2)NC(=O)/C=C/C[C@@H]([C@H](C)[C@H]2O[C@@H]2c2ccccc2)OC1=O [Cryptophycin 54]
KB IC50 ([4]; Table 2): 0.80 ng/mL
SKOV3 IC50 [1]: 2.2 ng/mL
LoVo IC50 ([2]; Table 2): 2.2 ng/mL

C=C1[C@@H](C)[C@H]2[C@H](Cc3ccccc3)NC(=O)[C@]23OC(=O)/C=C/[C@H](O)CCC[C@@H](C)C/C=C/[C@H]3[C@@H]1O [Cytochalasin B, cytochalasin B]
effect on microtubules [9, 18]: did not affect the distribution of either microtubules or intermediate filaments
effect on vimentin intermediate filaments [9, 18]: did not affect the distribution of either microtubules or intermediate filaments

COc1cc([C@@H]2c3cc4c(cc3[C@@H](O[C@@H]3O[C@@H]5CO[C@@H](C)O[C@H]5[C@H](O)[C@H]3O)[C@H]3COC(=O)[C@H]23)OCO4)cc(OC)c1O [VP-16, etoposide, reference compound]
Differential in Zone Units, Corbett Assay [3]: 350 Zone Units and 530 Zone Units

CC(=O)O[C@H]1C(=O)[C@@]2(C)[C@H]([C@H](OC(=O)c3ccccc3)[C@]3(O)C[C@H](OC(=O)[C@H](O)[C@@H](NC(=O)c4ccccc4)c4ccccc4)C(C)=C1C3(C)C)[C@]1(OC(C)=O)CO[C@@H]1C[C@@H]2O [taxol, reference compound]
increase in cell number in the 24 hours following removal of the drug [10]: 0.2- to 0.4 fold
Differential in Zone Units, Corbett Assay [3]: ≥ 400 Zone Units
Type of Cytotoxicity, Corbett Assay [3]: M/H/T

CC[C@]1(O)C[C@@H]2CN(CCc3c([nH]c4ccccc34)[C@@](C(=O)OC)(c3cc4c(cc3OC)N(C)[C@H]3[C@@](O)(C(=O)OC)[C@H](OC(C)=O)[C@]5(CC)C=CCN6CC[C@]43[C@@H]65)C2)C1 [vinblastine]
reversibility of microtubule depolymerization after removal of drug ([9]; 100 nM vinblastine or 10 nM cryptophycins for 24 hr, then drug-free medium 1 hour or 24 hours): complete morphological recovery by 24 hour
microtubule depolymerization after taxol pretreatment ([9]; 3 hours 10 μM taxol, then 100 nM vinblastine or 10 nM cryptophycin compound, 24 hours): pretreatment with taxol prevented microtubule depolymerization in response to vinblastine
effect on microfilaments [9, 18]: Neither compound affected microfilament organization
effect on vimentin intermediate filaments [9, 18]: vimentin intermediate filaments collapsed
increase in cell number in the 24 hours following removal of the drug [10]: approximately 3 fold
